Laboratory results taken from patent publication US20120088769A1, “SALTS OF ARYLSULFONAMIDE CCR3 ANTAGONISTS” (Axikin Pharmaceuticals, Inc., priority 2010, published 2012).

Test: Solubility assessment in water (aqueous solubility)
Type: physicochemical
Details: thermodynamic from solid
Procedure: Solubility assessment: A preweighed amount of powder of a salt was treated with water to target a nominal concentration of 50 mg/mL. If a clear solution was obtained, then the solubility was noted as ≧50 mg/mL. If a suspension was obtained, it was sonicated for 1 min, followed by vortex mixing for 30 sec, and centrifuged for 5 min. The mother liquor was siphoned off and assayed for content against a standard of the free base by HPLC.

solubility at 1.5 min (Free base) [µg/mL]	solubility at 1.5 min (HBr salt) [µg/mL]	solubility at 1.5 min (HCl salt) [µg/mL]	solubility at 1.5 min (Mesylate salt) [µg/mL]	solubility at 1.5 min (Phosphate salt) [µg/mL]	solubility at 1.5 min (Sulfate salt) [µg/mL]	solubility at 1.5 min (Tartrate salt) [µg/mL]	solubility at 1.5 min (Camsylate salt) [µg/mL]	solubility at 1.5 min (Tosylate salt) [µg/mL]	solubility at 1.5 min (Citrate salt) [µg/mL]	SMILES
< 10	400	1360	7260	1700	790	450	–	–	–	CN1CCN(S(=O)(=O)c2cc(C#N)ccc2Sc2cc(Cl)cc(Cl)c2)CC1 [Cmpd 1, 4-(3,5-dichlorophenylthio)-3-(4-methylpiperazin-1-ylsulfonyl)benzonitrile]
< 10	–	–	270	120	230	–	–	–	–	CCN1CCN(S(=O)(=O)c2cc(C#N)ccc2Oc2cc(Cl)cc(Cl)c2)CC1 [Cmpd 2, 4-(3,5-dichlorophenoxy)-3-(4-ethylpiperazin-1-ylsulfonyl)benzonitrile]
< 10	30	330	200	–	–	–	80	–	–	CCN1CCN(S(=O)(=O)c2cc(C#N)ccc2Oc2cc(C)cc(C)c2)CC1 [Cmpd 3, 4-(3,5-dimethylphenoxy)-3-(4-ethylpiperazin-1-ylsulfonyl)benzonitrile]
< 10	200	800	23000	–	1100	–	240	–	–	CC(C)N1CCN(S(=O)(=O)c2cc(C#N)ccc2Sc2cc(Cl)cc(Cl)c2)CC1 [Cmpd 4, 4-(3,5-dichlorophenylthio)-3-(4-isopropylpiperazin-1-ylsulfonyl)benzonitrile]
< 10	–	110	230	10000	1200	–	–	–	–	N#Cc1ccc(Sc2cc(Cl)cc(Cl)c2)c(S(=O)(=O)N2CCN(C3CCCC3)CC2)c1 [Cmpd 5, 3-(4-cyclopentylpiperazin-1-ylsulfonyl)-4-(3,5-dichlorophenylthio)-benzonitrile]
< 10	1000	1590	10000	1660	600	–	250	300	–	CCN1CCN(S(=O)(=O)c2cc([N+](=O)[O-])ccc2Oc2cc(Cl)cc(Cl)c2)CC1 [Cmpd 6, 1-(2-(3,5-dichlorophenoxy)-5-nitrophenylsulfonyl)-4-ethylpiperazine]
< 10	–	3670	3810	2910	2350	–	–	–	800	N#Cc1ccc(Oc2cc(Cl)cc(Cl)c2)c(S(=O)(=O)N2CCC(NC(=O)NCCN3CCOCC3)CC2)c1 [Cmpd 7, 1-(1-(5-cyano-2-(3,5-dichlorophenoxy)phenylsulfonyl)piperidin-4-yl)-3-(2-morpholinoethyl)urea]
< 10	–	1400	10900	2400	580	–	–	–	–	CN1CCN(CCNC(=O)NC2CCN(S(=O)(=O)c3cc(C#N)ccc3Oc3cc(Cl)cc(Cl)c3)CC2)CC1 [Cmpd 8, 1-(1-(5-cyano-2-(3,5-dichlorophenoxy)phenylsulfonyl)piperidin-4-yl)-3-(2-(4-methylpiperazin-1-yl)ethyl)urea]
